According to patent publication US20240391875A1, “ISOQUINOLINONES AND QUINOLINONES AS MODULATORS OF POLRMT” (Pretzel Therapeutics, Inc., priority 2021, published 2024):

Molecular target: POLRMT (Homo sapiens, UniProt O00411)
Assay: homogeneous TR-FRET assay of mitochondrial transcription (inhibition of POLRMT)
Assay type: biochemical
Settings: isoquinolinone compounds (Table 1)
Protocol: The inhibitory activity of the compounds of the present invention against POLRMT were determined by assays based on Bergbrede, T., et al., “An adaptable high-throughput technology enabling the identification of specific transcription modulators,” SLAC Discov., 22, 378-386 (2017).
The ability of some compounds of the present invention to inhibit POLRMT were determined in a homogeneous TR-FRET Assay using high-throughput screening in a 384-well plate format. This method is used to monitor the activity of mitochondrial transcription through measurement of its product, a 407 bp long RNA transcript. Detection of the product is facilitated by hybridization of two DNA-oligonucleotide probes to specific and adjacent sequences within the RNA product sequence. Upon annealing of the probes, two fluorophores are coupled directly to an acceptor nucleotide probe (ATTO647, 5′), or introduced via a coupled streptavidin with a biotinylated donor nucleotide probe (Europium cryptate) that is brought into sufficient proximity to serve as a fluorescence-donor-acceptor pair. Thus, a FRET signal at 665 nm is generated upon excitation at 340 nm.
Proteins used as transcription factors (POLRMT: NP_005026.3, TFAM: NP_003192.1, TFB2M: NP_071761.1) are diluted from their stocks to working concentrations of 1 μM, 20 μM and 4 μM respectively, in a dilution buffer containing 20 mM Tris-HCl (pH 8.0), 200 mM NaCl, 10% (v/v) glycerol, 1 mM Dithiothreitol (DTT), 0.5 mM EDTA.
DNA template is a pUC18 plasmid with the mitochondrial light strand promotor sequence (1-477) cloned between HindIII and BamHI sites. The DNA template is restriction linearized proximal to the promotor 3′-end (pUC-LSP).
The reaction mixture (10 uL) containing 7.5 nM POLRMT, 15 nM of TFB2M, 30 nM of TFAM, 0.5 nM of DNA template and 500 μM nucleotide triphosphate mix (NTPs) in a reaction buffer (containing 10 mM Tris-HCl (pH 7.5), 10 mM MgCl2, 40 mM NaCl, 10 mM DTT, 0.005% (w/v) Tween-20, 160 units/ml Rnase inhibitor and 0.1 mg/mL BSA) are dispensed to compounds in microplates, using a Thermo Multidrop® dispenser, and incubated at 37° C. in a VWR INCU-Line incubator for 60 minutes after mixing. No nucleotide triphosphate mix is added to negative control samples. Microplates with compounds to be tested in the assay are prepared from 10 mM compound stocks in 100% DMSO, equal amounts of DMSO without any compound are added to positive control and negative control samples.
During the incubation, a mix of the detection reagents is prepared in a buffer such that the enzymatic reaction is terminated due to chelating of Mg-ions and increased ionic strength, containing 50 mM Tris-HCl (pH 7.5), 700 mM NaCl, 20 mM EDTA, and 0.010% (w/v) Tween-20. Europium-streptavidin is pre-incubated with a 200-fold molar excess of a random sequence oligonucleotide to block unspecific binding of oligo, for two hours at ambient temperature in the dark. Afterwards, the blocked Europium-streptavidin is kept on ice until use.
At the end of the enzymatic reaction time, 5 μL detection oligo mix in the detection buffer is added, and assay plates are mixed and kept at ambient temperature for one hour, protected from light. The concentration of the Acceptor nucleotide oligo (e.g., ATTO647N-5′-[…]-3′) and Donor nucleotide oligo (e.g., bio-5′-AACACATCTCT(-bio)GCCAAACCCCA-bio-3′) in each assay well is 1 nM, and 3 nM, respectively.
After incubation with oligo mix, 5 μL of pre-blocked Europium-streptavidin reagent is dispensed to each assay well, assay plates are again mixed and kept at ambient temperature for one hour, protected from light.
The generated signal is measured with BMG Pherastar microtiter plate reader with a TRF light unit, using excitation at 340 nm, an integration time of 200 μs, and a delay time of 100 μs, before detection at 620 nm and 665 nm. The ratio of donor- and acceptor-fluorescence is used as a measure of the generated transcript product (i.e. enzymatic activity).

Chain of POLRMT (O00411 42-1230): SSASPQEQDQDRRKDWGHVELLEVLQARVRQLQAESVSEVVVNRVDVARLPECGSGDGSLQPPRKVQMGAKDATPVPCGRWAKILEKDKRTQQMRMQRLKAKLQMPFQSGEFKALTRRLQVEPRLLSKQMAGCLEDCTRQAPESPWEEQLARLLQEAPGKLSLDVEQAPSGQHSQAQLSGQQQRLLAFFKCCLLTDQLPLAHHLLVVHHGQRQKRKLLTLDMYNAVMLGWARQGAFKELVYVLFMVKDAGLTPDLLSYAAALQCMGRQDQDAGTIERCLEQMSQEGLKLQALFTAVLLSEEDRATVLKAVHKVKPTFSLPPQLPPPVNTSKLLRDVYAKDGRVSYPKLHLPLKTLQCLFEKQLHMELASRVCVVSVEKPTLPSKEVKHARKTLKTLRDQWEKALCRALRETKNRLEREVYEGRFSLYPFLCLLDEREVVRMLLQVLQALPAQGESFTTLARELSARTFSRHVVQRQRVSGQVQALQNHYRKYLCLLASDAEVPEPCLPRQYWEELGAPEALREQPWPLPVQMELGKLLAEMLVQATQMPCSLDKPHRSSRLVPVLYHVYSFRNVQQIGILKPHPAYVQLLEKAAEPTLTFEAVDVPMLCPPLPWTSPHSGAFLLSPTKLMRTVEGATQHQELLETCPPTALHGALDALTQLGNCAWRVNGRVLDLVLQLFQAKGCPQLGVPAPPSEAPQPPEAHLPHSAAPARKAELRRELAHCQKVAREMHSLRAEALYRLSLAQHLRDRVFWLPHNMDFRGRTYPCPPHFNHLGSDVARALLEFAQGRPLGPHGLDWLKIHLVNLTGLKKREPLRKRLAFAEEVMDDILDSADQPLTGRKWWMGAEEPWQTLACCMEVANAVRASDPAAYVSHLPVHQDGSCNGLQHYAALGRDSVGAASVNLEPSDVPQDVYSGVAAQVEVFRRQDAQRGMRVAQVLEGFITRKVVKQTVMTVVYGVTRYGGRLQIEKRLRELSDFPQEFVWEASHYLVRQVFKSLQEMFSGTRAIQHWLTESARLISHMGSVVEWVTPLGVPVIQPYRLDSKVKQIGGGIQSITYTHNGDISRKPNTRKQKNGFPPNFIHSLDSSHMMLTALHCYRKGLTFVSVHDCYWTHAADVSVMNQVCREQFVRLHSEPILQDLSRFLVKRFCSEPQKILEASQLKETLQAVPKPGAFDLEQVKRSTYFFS

Structure (SMILES)	IC50
Cc1ccccc1-c1c[nH]c(=O)c2cc(OC(C)(C)C(=O)O)ccc12 [Example 119, 2-methyl-2-((1-oxo-4-(o-tolyl)-1,2-dihydroisoquinolin-7-yl)oxy)propanoic acid]	700 nM
Cc1ccccc1-c1c[nH]c(=O)c2cc(N(C)CC(N)=O)ccc12 [Example 66, 2-(methyl(1-oxo-4-(o-tolyl)-1,2-dihydroisoquinolin-7-yl)amino)acetamide]	5000 nM
Cc1ccccc1-c1c[nH]c(=O)c2cc(OCC(C)C)ccc12 [Example 6, 7-isobutoxy-4-(o-tolyl)isoquinolin-1(2H)-one]	200 nM
CC(=O)N1CC[C@@H](Oc2ccc3c(-c4ccccc4C)c[nH]c(=O)c3c2)C1 [Example 16, (R)-7-((1-acetylpyrrolidin-3-yl)oxy)-4-(o-tolyl)isoquinolin-1(2H)-one]	51000 nM
Cc1cc(F)cc(C)c1-c1c[nH]c(=O)c2cc(OCC(=O)O)ccc12 [Example 110, 2-((4-(4-fluoro-2,6-dimethylphenyl)-1-oxo-1,2-dihydroisoquinolin-7-yl)oxy)acetic acid]	25000 nM
CC(=O)N1CCC(C(=O)Nc2ccc3c(-c4ccccc4C)c[nH]c(=O)c3c2)CC1 [Example 33, 1-acetyl-N-(1-oxo-4-(o-tolyl)-1,2-dihydroisoquinolin-7-yl)piperidine-4-carboxamide]	> 100000 nM
COCC(C)Oc1ccc2c(-c3ccccc3C)c[nH]c(=O)c2c1 (single isomer, unassigned) [Example 27, 7-((1-methoxypropan-2-yl)oxy)-4-(o-tolyl)isoquinolin-1(2H)-one]	1000 nM
Cc1ccccc1-c1c[nH]c(=O)c2cc(-c3ccccc3)ccc12 [Example 48, 7-phenyl-4-(o-tolyl)isoquinolin-1(2H)-one]	200 nM

The remaining lines, values ahead:

IC50	Structure (SMILES)
25000 nM	C[C@H](Oc1ccc2c(-c3ccc(F)cc3Cl)c[nH]c(=O)c2c1)C(=O)N1CCC[C@H](C(=O)O)C1 [Example 59, (S)-1-((S)-2-((4-(2-chloro-4-fluorophenyl)-1-oxo-1,2-dihydroisoquinolin-7-yl)oxy)propanoyl)piperidine-3-carboxylic acid]
90 nM	C[C@@H](Oc1ccc2c(-c3ccc(F)cc3Cl)c[nH]c(=O)c2c1)C(=O)N1CCC[C@H](C(N)=O)C1 [Example 82, (S)-1-((R)-2-((4-(2-chloro-4-fluorophenyl)-1-oxo-1,2-dihydroisoquinolin-7-yl)oxy)propanoyl)piperidine-3-carboxamide]
50 nM	Cc1ccccc1-c1c[nH]c(=O)c2cc(O[C@H](C)C(=O)N3CCC(C(=O)O)CC3)ccc12 [Example 24, (R)-1-(2-((1-oxo-4-(o-tolyl)-1,2-dihydroisoquinolin-7-yl)oxy)propanoyl)piperidine-4-carboxylic acid]
500 nM	C[C@H]1CN(C(=O)[C@@H](C)Oc2ccc3c(-c4ccc(F)cc4Cl)c[nH]c(=O)c3c2)C[C@H](C)O1 (single isomer, unassigned) [Example 124]
40 nM	Cc1ccccc1-c1c[nH]c(=O)c2cc(O[C@H](C)C(=O)N3CCC(F)(F)CC3)ccc12 [Example 80, (R)-7-((1-(4,4-difluoropiperidin-1-yl)-1-oxopropan-2-yl)oxy)-4-(o-tolyl)isoquinolin-1(2H)-one]
100 nM	C[C@@H]1CN(C(=O)[C@@H](C)Oc2ccc3c(-c4ccc(F)cc4Cl)c[nH]c(=O)c3c2)C[C@H](C)O1 [Example 100, 4-(2-chloro-4-fluorophenyl)-7-(((R)-1-((2S,6R)-2,6-dimethylmorpholino)-1-oxopropan-2-yl)oxy)isoquinolin-1(2H)-one]
700 nM	COC[C@H]1COCCN1C(=O)[C@@H](C)Oc1ccc2c(-c3ccc(F)cc3Cl)c[nH]c(=O)c2c1 [Example 103, 4-(2-chloro-4-fluorophenyl)-7-(((R)-1-((S)-3-(methoxymethyl)morpholino)-1-oxopropan-2-yl)oxy)isoquinolin-1(2H)-one]
20 nM	Cc1ccccc1-c1c[nH]c(=O)c2cc(O[C@H](C)C(=O)N3C4CCCC3CC4)ccc12 [Example 86, 7-(((2R)-1-(8-azabicyclo[3.2.1]octan-8-yl)-1-oxopropan-2-yl)oxy)-4-(o-tolyl)isoquinolin-1(2H)-one]
200 nM	C[C@@H](Oc1ccc2c(-c3ccc(F)cc3Cl)c[nH]c(=O)c2c1)C(=O)N1CCOC[C@@H]1CO [Example 114, 4-(2-chloro-4-fluorophenyl)-7-(((R)-1-((S)-3-(hydroxymethyl)morpholino)-1-oxopropan-2-yl)oxy)isoquinolin-1(2H)-one]
3000 nM	C[C@@H](Oc1ccc2c(-c3ccc(F)cc3Cl)c[nH]c(=O)c2c1)C(=O)N1CC[S+]([O-])CC1 [Example 128, (R)-4-(2-chloro-4-fluorophenyl)-7-((1-(1-oxidothiomorpholino)-1-oxopropan-2-yl)oxy)isoquinolin-1(2H)-one]
1000 nM	C[C@@H](Oc1ccc2c(-c3ccc(F)cc3Cl)c[nH]c(=O)c2c1)C(=O)N1CCO[C@@H](CO)C1 [Example 104, 4-(2-chloro-4-fluorophenyl)-7-(((R)-1-((R)-2-(hydroxymethyl)morpholino)-1-oxopropan-2-yl)oxy)isoquinolin-1(2H)-one]
2000 nM	C[C@@H](Oc1ccc2c(-c3ccc(F)cc3Cl)c[nH]c(=O)c2c1)C(=O)N1CCS(=O)(=O)CC1 [Example 101, (R)-4-(2-chloro-4-fluorophenyl)-7-((1-(1,1-dioxidothiomorpholino)-1-oxopropan-2-yl)oxy)isoquinolin-1(2H)-one]
30 nM	C[C@@H](Oc1ccc2c(-c3ccc(F)cc3Cl)c[nH]c(=O)c2c1)C(=O)N1C2CCCC1CC2 [Example 93, 7-(((2R)-1-(8-azabicyclo[3.2.1]octan-8-yl)-1-oxopropan-2-yl)oxy)-4-(2-chloro-4-fluorophenyl)isoquinolin-1(2H)-one]
30 nM	Cc1ccccc1-c1c[nH]c(=O)c2cc(O[C@H](C)C(=O)N3CCOCC3)ccc12 [Example 78, (R)-7-((1-morpholino-1-oxopropan-2-yl)oxy)-4-(o-tolyl)isoquinolin-1(2H)-one]

Same assay, conditions: quinolinone compounds (Table 2)

IC50	Structure (SMILES)
5000 nM	C[C@@H](Oc1ccc2c(-c3ccc(F)cc3Cl)cc(=O)[nH]c2c1)C(=O)N1CCCCC1 [Example Q5, (R)-4-(2-chloro-4-fluorophenyl)-7-((1-oxo-1-(piperidin-1-yl)propan-2-yl)oxy)quinolin-2(1H)-one]
23000 nM	CC(C)Oc1ccc2c(-c3ccc(F)cc3Cl)cc(=O)[nH]c2c1 [Example Q4, 4-(2-chloro-4-fluorophenyl)-7-isopropoxyquinolin-2(1H)-one]
> 100000 nM	COc1ccc2c(-c3ccc(F)cc3Cl)cc(=O)[nH]c2c1 [Example Q1, 4-(2-chloro-4-fluorophenyl)-7-methoxyquinolin-2(1H)-one]
7000 nM	Cc1ccccc1-c1cc(=O)[nH]c2cc(O[C@H](C)C(=O)N3CCC[C@H](C(=O)O)C3)ccc12 [Example Q15, (S)-1-((R)-2-((2-oxo-4-(o-tolyl)-1,2-dihydroquinolin-7-yl)oxy)propanoyl)piperidine-3-carboxylic acid]
4000 nM	Cc1cc(F)ccc1-c1cc(=O)[nH]c2cc(OC(C)C)ccc12 [Example Q3, 4-(4-fluoro-2-methylphenyl)-7-isopropoxy-1H-quinolin-2-one]
